For test [1], the system named is MDA-MB-468 cells. Briefly: Cytotoxicity dose response (CellTiter-Glo, 48 h). In kind it is cell-based, human.
Test [2] relates to MDA-MB-468 cells. Particulars: cited from earlier work.
For another test, the system named is MCF 10A (normal cells). As to the kind of experiment: Cytotoxicity dose response (CellTiter-Glo, 48 h). The format is cell-based, human.
Test [3] has as its system extracellular H2O2 in MDA-MB-468 cells. As to the kind of experiment: Extracellular H2O2 measurement (Amplex Red assay). The format is cell-based, human. To be noted: MDA-MB-468 at maximum safe ascorbic acid dose, 48 h.
Test [4] deals with intracellular H2O2 in MDA-MB-468 cells. Briefly: Intracellular H2O2 measurement (AbGreen indicator). The format is cell-based, human. To be noted: MDA-MB-468 under ascorbic acid treatment, 48 h.
Test [5] deals with extracellular H2O2 in MCF 10A cells. As to the kind of experiment: Extracellular H2O2 measurement (Amplex Red assay). In kind it is cell-based, human. Particulars: MCF 10A at maximum safe ascorbic acid dose, 48 h.
For test [6], the system named is MDA-MB-468 breast cancer xenograft. Further details: species or system immune-deficient female nude mice. Particulars: mouse, in vivo.
For test [7], the system named is MCF7 cells. As to the kind of experiment: cells. In kind it is cell-based, human.
Test [8] deals with extracellular H2O2 in MCF7 cells. Briefly: Extracellular H2O2 measurement (Amplex Red assay). In kind it is cell-based, human. To be noted: 48 h.
The subject of a further test is MDA-MB-436 cells. As to the kind of experiment: cells. In kind it is cell-based, human.
Test [9] relates to U-87 MG cells.
The subject of test [10] is MDA-MB-468 cells. In kind it is cell-based, human.
In test [11] the test system is MCF7 cells.
In another test the test system is HMEC cells. Briefly: cells. To be noted: Homo sapiens, 48 h. The format is cell-based.
The subject of the next test is MDA-MB-231 cells. As to the kind of experiment: cells. The format is cell-based, human.
Test [12] concerns MDA-MB-468 cells. In kind it is cell-based, human. The source holds these as a separate data set.
In the next test the test system is MCF 10A cells. The format is cell-based, human.
Test [13] relates to U-87 MG cells. As to the kind of experiment: cells. In kind it is cell-based.
Test [14] relates to extracellular H2O2 in U-87 MG cells. As to the kind of experiment: Extracellular H2O2 measurement (Amplex Red assay). Particulars: U-87 MG at maximum safe ascorbic acid dose, 48 h. The format is cell-based.

Values joined by “and” are separate entries in the source; they are usually repeats but may differ in a detail not shown here. Equal values may be shown once. Read-outs that look alike come from different tables or passages of the source.

For `O=C(O)CCCc1ccc(N(CCCl)CCCl)cc1` [Chlorambucil], the “Fold Change” value in the test on MDA-MB-468 cells [1] is recorded as 1 fold. Moreover, the half-inhibitory concentration (IC50) in the test on MDA-MB-468 cells [1] (Homo sapiens, MDA-MB-468, 48 h) is 30.2 ± 2.3 µM; with MDA-MB-468 cells [1] (Homo sapiens, MDA-MB-468, read-out: IC50 in combination with Vitamin C Safe Dose) it was 28.7 ± 2.4 µM; in the test on MDA-MB-468 cells [2] it was 34.4 µM.
With `O=C(OC1Cc2c(O)cc(O)cc2OC1c1cc(O)c(O)c(O)c1)c1cc(O)c(O)c(O)c1` (stereo not drawn) [EGCG], in the test on MDA-MB-468 cells [1], the “MSD (Maximum Safe Dose)” value is 12.50 µM, the “SI (Selectivity Index)” value turned out to be 0.5 and the “SI of Prodrug Combined with Maximum Safety Dose of Pro-oxidant” value (“SI of Prodrug Combined” for short) amounted to 2. Further, inhibition with MDA-MB-468 cells [1] (Homo sapiens, MDA-MB-468, 48 h) was half-maximal at 65 ± 3.45 µM (IC50). Also, in the test with MCF 10A (normal cells), the “MSD (Maximum Safe Dose)” value came to 6.25 µM. The compound further came in with an IC50 in the test on MCF 10A (normal cells) (Homo sapiens, MCF-10A, 48 h) of 28.5 ± 2.55 µM.
For `COc1cc(/C=C/C(=O)N2CCC=CC2=O)cc(OC)c1OC` [Piperlogumine], the “MSD (Maximum Safe Dose)” value stood at 0.78 µM in the test on MDA-MB-468 cells [1] and 1.56 µM in the test with MCF 10A (normal cells). For the same compound, the “SI (Selectivity Index)” value with MDA-MB-468 cells [1] amounted to 2. Besides, in the test with MDA-MB-468 cells [1], the “SI of Prodrug Combined” value turned out to be 6. Further, the IC50 with MDA-MB-468 cells [1] (Homo sapiens, MDA-MB-468, 48 h) came out at 2.24 ± 0.05 µM; in the test with MCF 10A (normal cells) (Homo sapiens, MCF-10A, 48 h), 4.91 ± 0.51 µM.
As to `CCCOC(=O)c1cc(O)c(O)c(O)c1` [Propyl Gallate], the figures for the “MSD (Maximum Safe Dose)” value in the test with MDA-MB-468 cells [1] and with MCF 10A (normal cells) were 25.00 µM and 12.50 µM, respectively. In the test on MDA-MB-468 cells [1], the “SI (Selectivity Index)” value is 1. Further, the “SI of Prodrug Combined” value with MDA-MB-468 cells [1] was 3. The IC50 in the test with MDA-MB-468 cells [1] (Homo sapiens, MDA-MB-468, 48 h) is 49.2 ± 1.83 µM; in the test on MCF 10A (normal cells) (Homo sapiens, MCF-10A, 48 h) it was 51.4 ± 5.45 µM.
In the case of `O=c1c(O)c(-c2ccc(O)c(O)c2)oc2cc(O)cc(O)c12` [Quercetin], the “MSD (Maximum Safe Dose)” value in the test with MDA-MB-468 cells [1] turned out to be 3.13 µM; in the test with MCF 10A (normal cells), 6.25 µM. Also, the IC50 amounted to 15.8 ± 2.15 µM in the test with MDA-MB-468 cells [1] (Homo sapiens, MDA-MB-468, 48 h) and 19.6 ± 1.24 µM in the test on MCF 10A (normal cells) (Homo sapiens, MCF-10A, 48 h).
With `O=C1O[C@H]([C@@H](O)CO)C(O)=C1O` [Vitamin C], the “extracellular H2O2 level” value in test [3] was “around 10 μM”; in test [5], about 5 µM; in test [8] (MCF7 at maximum safe ascorbic acid dose) it was about 7 µM; in test [14], about 7 µM. Besides, the “intracellular H2O2 level compared to untreated samples” value in test [4] is “significant threefold increase”. Besides, the “effect on tumor size” value in [6] is given as “observable inhibitory effects on the tumor size”. In addition, the “Maximum Safe Dose (MSD)” value was 1 mM and 1.00 mM with MDA-MB-468 cells [1]; 0.25 mM in the test with MCF7 cells [7]; 1.25 mM in the test with MCF 10A (normal cells); 1 mM in the test on MDA-MB-436 cells; 1 mM with MDA-MB-231 cells; 0.3 mM and 0.30 mM with U-87 MG cells [13]. Moreover, the IC50 is 970 ± 70 µM in the test with MCF7 cells [7]; 1000 µM with MCF7 cells [7] (Homo sapiens, MCF7, 48 h); 4200 ± 400 µM with MCF 10A (normal cells); 1390 ± 100 µM with MDA-MB-436 cells (Homo sapiens, MDA-MB-436, 48 h); 2670 ± 400 µM in the test on HMEC cells; 2230 ± 300 µM in the test on MDA-MB-231 cells (Homo sapiens, MDA-MB-231, 48 h). In addition, half-maximal inhibition in the test on U-87 MG cells [13] (Homo sapiens, U-87 MG, 48 h) (IC50) was put at 1000 µM. For the same compound, the “H2O2 generated (most substantial change)” value in [8] (MCF7, increasing mM ascorbic acid) was “over 20 μM”. Also, the “dose found to be safe” value came out at 0.25 mM in the test with U-87 MG cells [9], 1 mM in the test with MDA-MB-468 cells [10], 0.25 mM in the test with MCF7 cells [11] and 1 mM in the test with MCF 10A cells. Moreover, the “observable DNA damage” value in the test on MDA-MB-468 cells [12] is given as “did not show any observable DNA damage”.
Turning to `Cc1c(C)c2c(c(C)c1O)CCC(C)(CCCC(C)CCCC(C)CCCC(C)C)O2` (stereo not drawn) [Vitamin E], in the test with MDA-MB-468 cells [1], the “MSD (Maximum Safe Dose)” value is 1.56 µM, the “SI (Selectivity Index)” value is on record as 5 and the “SI of Prodrug Combined” value is listed as 11. The compound further registered an IC50 in the test with MDA-MB-468 cells [1] (Homo sapiens, MDA-MB-468, 48 h) of 76.5 ± 6.62 µM. The “MSD (Maximum Safe Dose)” value with MCF 10A (normal cells) came out at 25.00 µM. In the test with MCF 10A (normal cells) (Homo sapiens, MCF-10A, 48 h), the IC50 came to 376 ± 21.4 µM.
Regarding `CC1(C)CCC2=C(O1)c1ccccc1C(=O)C2=O` [β-Lapachone], in the test with MDA-MB-468 cells [1], the “MSD (Maximum Safe Dose)” value was found to be 0.78 µM, the “SI (Selectivity Index)” value came out at 3 and the “SI of Prodrug Combined” value was 2. This compound also showed an IC50 in the test on MDA-MB-468 cells [1] (Homo sapiens, MDA-MB-468, 48 h) of 1.06 ± 0.17 µM. For the same compound, in the test with MCF 10A (normal cells), the “MSD (Maximum Safe Dose)” value was found to be 1.56 µM. This compound also registered an IC50 with MCF 10A (normal cells) (Homo sapiens, MCF-10A, 48 h) of 3.42 ± 0.22 µM.
As to Arsenic Trioxide, in the test with MDA-MB-468 cells [1], the “MSD (Maximum Safe Dose)” value amounted to 0.79 µM, the “SI (Selectivity Index)” value came to 1 and the “SI of Prodrug Combined” value is 5. Besides, the IC50 with MDA-MB-468 cells [1] (read-out: IC50) stood at 6.27 ± 0.33 µM. Further, the “MSD (Maximum Safe Dose)” value in the test on MCF 10A (normal cells) was 1.56 µM. Besides, the IC50 with MCF 10A (normal cells) (read-out: IC50) was 8.52 ± 0.4 µM.

For orientation: IC50 means the concentration that inhibits the measured activity by half.

(Values after US20260207641A1, “COMBINATION THERAPY FOR CANCER USING ROS-ACTIVATED PRODRUGS AND ROS-AMPLIFYING THERAPEUTICS” (UWM Research Foundation, Inc., priority 2023, published 2026).)
